Laboratory results as given in US12577234B2, “Antagonists of the muscarinic acetylcholine receptor M4” (Vanderbilt University, priority 2017, dated 2026).

Target: T1, human mAChR M4 (Homo sapiens, UniProt P08173)
T1 construct: expressed in transfected cells; host or cells: CHO-K1 (ATCC), stably co-expressing chimeric G protein Gqi5
T1 sequence (P08173 1-479): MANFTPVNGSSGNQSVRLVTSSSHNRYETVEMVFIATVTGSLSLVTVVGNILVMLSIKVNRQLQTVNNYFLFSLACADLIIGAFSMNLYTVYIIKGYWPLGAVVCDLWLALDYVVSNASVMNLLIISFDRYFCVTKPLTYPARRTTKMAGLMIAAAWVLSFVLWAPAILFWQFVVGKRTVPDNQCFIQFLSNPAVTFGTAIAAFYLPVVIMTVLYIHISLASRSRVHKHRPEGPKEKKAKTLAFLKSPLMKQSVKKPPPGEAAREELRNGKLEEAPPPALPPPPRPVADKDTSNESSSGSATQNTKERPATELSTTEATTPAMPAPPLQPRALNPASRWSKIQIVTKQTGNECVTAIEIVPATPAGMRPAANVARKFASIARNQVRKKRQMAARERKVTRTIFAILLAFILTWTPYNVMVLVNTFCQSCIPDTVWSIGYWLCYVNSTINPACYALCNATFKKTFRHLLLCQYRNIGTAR
Test: mAChR M4 cell-based functional assay (calcium mobilization, EC80 acetylcholine), human M4
Details: for IC50: M4/Gqi5/CHO-K1 cells, decrease of EC80 acetylcholine response; for Emin: human M4, % ACh maximum at 30 μM
Experimental: Human or rat M4 cDNA, along with the chimeric G protein Gqi5, were transfected into Chinese hamster ovary (CHO-K1) cells purchased from the American Type Culture Collection using Lipofectamine2000. M4/Gqi5/CHO cells were grown in Ham's F-12 medium containing 10% heat-inactivated fetal bovine serum (FBS), 20 mM HEPES, 500 μg/mL G418 sulfate, and 200 μg/mL Hygromycin B.
For high throughput measurement of agonist-evoked increases in intracellular calcium, CHO-K1 cells stably expressing muscarinic receptors were plated in growth medium lacking G418 and hygromycin at 15,000 cells/20 μL/well in Greiner 384-well black-walled, tissue culture (TC)-treated, clear-bottom plates (VWR). Cells were incubated overnight at 37° C. and 5% CO2. […] Compound master plates were formatted in a 10 point concentration-response curve (CRC) format (1:3 dilutions) in 100% DMSO with a starting concentration of 10 or 1 mM using a BRAVO liquid handler (Agilent). Test compound CRCs were then transferred to daughter plates (240 nL) using the Echo acoustic plate reformatter (Labcyte, Sunnyvale, CA) and then diluted into assay buffer (40 μL) to a 2× stock using a Thermo Fisher Combi (Thermo Fisher Scientific, Waltham, MA).
Calcium flux was measured using the Functional Drug Screening System (FDSS) 6000 or 7000 (Hamamatsu Corporation, Tokyo, Japan) as an increase in the fluorescent static ratio. Compounds were applied to cells (20 μL, 2×) using the automated system of the FDSS at 2 seconds into the protocol and the data were collected at 1 Hz. […] Agonist activity was analyzed as a concentration-dependent increase in calcium mobilization upon compound addition. Positive allosteric modulator activity was analyzed as a concentration-dependent increase in the EC20 acetylcholine response. Antagonist activity was analyzed as a concentration-dependent decrease in the EC80 acetylcholine response; for the purposes of the tables herein, an IC50 (inhibitory concentration 50) was calculated as a concentration-dependent decrease of the response elicited by an EC80 concentration of acetylcholine. Concentration-response curves were generated using a four-parameter logistical equation in XLFit curve fitting software (IDBS, Bridgewater, NJ) for Excel (Microsoft, Redmond, WA) or Prism (GraphPad Software, Inc., San Diego, CA) or the Dotmatics software platform (Dotmatics, Bishop's Stortford, UK).

Row | Compound | Human M4 Emin (Table 10) [%] | IC50 (Table 10) [nM] | IC50 (Table 9) [nM] | Emin (Table 9) [%]
1 | Cc1nn(C)cc1-c1ccc(O[C@@H]2C[C@@H]3CN(CCC(C)(C)C)C[C@@H]3C2)nn1 [Compound 48, (3aR,5r,6aS)-2-(3,3-dimethylbutyl)-5-[6-(1,3-dimethylpyrazol-4-yl)pyridazin-3-yl]oxy-3,3a,4,5,6,6a-hexahydro-1H-cyclopenta[c]pyrrole] |  |  | 361 | 3.79
2 | CCC(C)CN1C[C@H]2CC(COc3ccc(-c4cn(C)nc4C)nn3)C[C@H]2C1 (stereo partly drawn) [Compound 95, (3aR,6aS)-5-[[6-(1,3-dimethylpyrazol-4-yl)pyridazin-3-yl]oxymethyl]-2-(2-methylbutyl)-3,3a,4,5,6,6a-hexahydro-1H-cyclopenta[c]pyrrole] |  |  | 659 | 4.74
3 | Cc1nn(C)cc1-c1ccc(N[C@H]2C[C@@H]3CN(CC4CCCCC4)C[C@@H]3C2)nn1 [Compound 7, (3aR,5s,6aS)-2-(cyclohexylmethyl)-N-[6-(1,3-dimethylpyrazol-4-yl)pyridazin-3-yl]-3,3a,4,5,6,6a-hexahydro-1H-cyclopenta[c]pyrrol-5-amine] |  |  | 10 | 2.72
4 | Cc1nn(C)cc1-c1ccc(N[C@H]2C[C@@H]3CN(CCC(C)(C)C)C[C@@H]3C2)nn1 [Compound 3, (3aR,5s,6aS)-2-(3,3-dimethylbutyl)-N-[6-(1,3-dimethylpyrazol-4-yl)pyridazin-3-yl]-3,3a,4,5,6,6a-hexahydro-1H-cyclopenta[c]pyrrol-5-amine] |  |  | 0.6 | 4.99
5 | CCCC(C)CN1C[C@H]2CC(COc3ccc(-c4cc(F)ccc4Cl)nn3)C[C@H]2C1 (stereo partly drawn) [Compound 110, (3aR,6aS)-5-[[6-(2-chloro-5-fluoro-phenyl)pyridazin-3-yl]oxymethyl]-2-(2-methylpentyl)-3,3a,4,5,6,6a-hexahydro-1H-cyclopenta[c]pyrrole] |  |  | 773 | 4.60
6 | Cc1nn(C)cc1-c1ccc(NC[C@H]2C[C@@H]3CN(CC4CCCCC4)C[C@@H]3C2)nn1 [Compound 72, N-[[(3aR,5s,6aS)-2-(cyclohexylmethyl)-3,3a,4,5,6,6a-hexahydro-1H-cyclopenta[c]pyrrol-5-yl]methyl]-6-(1,3-dimethylpyrazol-4-yl)pyridazin-3-amine] |  |  | 201 | 4.02
7 | CCCC(C)CN1C[C@H]2CC(COc3ccc(-c4cn(C)nc4C)nn3)C[C@H]2C1 (stereo partly drawn) [Compound 96, (3aR,6aS)-5-[[6-(1,3-dimethylpyrazol-4-yl)pyridazin-3-yl]oxymethyl]-2-(2-methylpentyl)-3,3a,4,5,6,6a-hexahydro-1H-cyclopenta[c]pyrrole] |  |  | 301 | 4.62
8 | CC(C)(C)CCN1C[C@H]2C[C@H](Oc3ccc(-c4ccc(C(F)(F)F)cc4)nn3)C[C@H]2C1 [Compound 139, (3aR,5s,6aS)-2-(3,3-dimethylbutyl)-5-[6-[4-(trifluoromethyl)phenyl]pyridazin-3-yl]oxy-3,3a,4,5,6,6a-hexahydro-1H-cyclopenta[c]pyrrole] | 4 | 1560 |  | 
9 | Cc1nn(C)cc1-c1ccc(OCC2C[C@@H]3CN(Cc4ccccn4)C[C@@H]3C2)nn1 (stereo partly drawn) [Compound 103, (3aR,6aS)-5-[[6-(1,3-dimethylpyrazol-4-yl)pyridazin-3-yl]oxymethyl]-2-(2-pyridylmethyl)-3,3a,4,5,6,6a-hexahydro-1H-cyclopenta[c]pyrrole] |  |  | 9870 | 14.7
10 | Cc1nn(C)cc1-c1ccc(N[C@H]2C[C@@H]3CN(CC4CC5C=CC4C5)C[C@@H]3C2)nn1 (stereo partly drawn) [Compound 2, (3aR,5s,6aS)-2-(5-bicyclo[2.2.1]hept-2-enylmethyl)-N-[6-(1,3-dimethylpyrazol-4-yl)pyridazin-3-yl]-3,3a,4,5,6,6a-hexahydro-1H-cyclopenta[c]pyrrol-5-amine] |  |  | 0.3 | 3.87
11 | Cc1cnn(C)c1-c1ccc(NCCC2C[C@@H]3CN(CCC(C)(C)C)C[C@@H]3C2)nn1 (stereo partly drawn) [Compound 120, 6-(1,4-Dimethyl-1H-pyrazol-5-yl)-N-(2-((3aR,6aS)-2-(3,3-dimethylbutyl)octahydrocyclopenta[c]pyrrol-5-yl)ethyl)pyridazin-3-amine] |  |  | 2 | 3.48
12 | CC(=O)Nc1ccc(-c2ccc(N[C@@H]3C[C@@H]4CN(CCC(C)(C)C)C[C@@H]4C3)nn2)cc1 [Compound 39, N-[4-[6-[[(3aR,5r,6aS)-2-(3,3-Dimethylbutyl)-3,3a,4,5,6,6a-hexahydro-1H-cyclopenta[c]pyrrol-5-yl]amino]pyridazin-3-yl]phenyl]acetamide] |  |  | 8280 | 26.8

Second part, the compound after the results:

Row | Human M4 Emin (Table 10) [%] | IC50 (Table 10) [nM] | IC50 (Table 9) [nM] | Emin (Table 9) [%] | Compound
13 | 6 | 5020 |  |  | CC(C)(C)CCN1C[C@H]2C[C@H](Nc3ccc(N4CCOCC4)nn3)C[C@H]2C1 [Compound 143, (3aR,5s,6aS)-2-(3,3-dimethylbutyl)-N-(6-morpholinopyridazin-3-yl)-3,3a,4,5,6,6a-hexahydro-1H-cyclopenta[c]pyrrol-5-amine]
14 | 4 | 9.11 |  |  | F[C@H]1CCN(c2ccc(N[C@H]3C[C@@H]4CN(CC5CCOCC5)C[C@@H]4C3)nn2)C1 [Compound 195, (3aR,5s,6aS)-N-[6-[(3R)-3-fluoropyrrolidin-1-yl]pyridazin-3-yl]-2-(tetrahydropyran-4-ylmethyl)-3,3a,4,5,6,6a-hexahydro-1H-cyclopenta[c]pyrrol-5-amine]
15 |  |  | 4.8 |  | CCCC(C)CN1C[C@H]2C[C@H](Nc3ccc(-c4cn(C)nc4C)nn3)C[C@H]2C1 (stereo partly drawn) [compound 14]
16 | 5 | 1.25 |  |  | Fc1ccc(-c2ccc(N[C@H]3C[C@@H]4CN(CC5CCOCC5)C[C@@H]4C3)nn2)c(Cl)c1 [Compound 203, (3aR,5s,6aS)-N-[6-(2-chloro-4-fluoro-phenyl)pyridazin-3-yl]-2-(tetrahydropyran-4-ylmethyl)-3,3a,4,5,6,6a-hexahydro-1H-cyclopenta[c]pyrrol-5-amine]
17 | 11 | 102 |  |  | c1cc(-c2ccc(N[C@H]3C[C@@H]4CN(CC5CCOCC5)C[C@@H]4C3)nn2)c[nH]1 [Compound 229, (3aR,5s,6aS)-N-[6-(1H-pyrrol-3-yl)pyridazin-3-yl]-2-(tetrahydropyran-4-ylmethyl)-3,3a,4,5,6,6a-hexahydro-1H-cyclopenta[c]pyrrol-5-amine]
18 | 5 | 52.9 |  |  | CC(=O)Nc1ccc(-c2cnc(N[C@H]3C[C@@H]4CN(CC5CC6C=CC5C6)C[C@@H]4C3)cn2)cc1 (stereo partly drawn) [Compound 157, N-[4-[5-[[(3aR,5s,6aS)-2-(5-bicyclo[2.2.1]hept-2-enylmethyl)-3,3a,4,5,6,6a-hexahydro-1H-cyclopenta[c]pyrrol-5-yl]amino]pyrazin-2-yl]phenyl]acetamide]
19 | 3 | 19.7 |  |  | Fc1ccc(CN2C[C@H]3C[C@H](Nc4ccc(-c5cc(F)ccc5Cl)nn4)C[C@H]3C2)cc1 [Compound 163, (3aR,5s,6aS)-N-[6-(2-chloro-5-fluoro-phenyl)pyridazin-3-yl]-2-[(4-fluorophenyl)methyl]-3,3a,4,5,6,6a-hexahydro-1H-cyclopenta[c]pyrrol-5-amine]
20 | 5 | 13.4 |  |  | c1cc(N2CCOCC2)nnc1N[C@H]1C[C@@H]2CN(CC3CCOCC3)C[C@@H]2C1 [Compound 191, (3aR,5s,6aS)-N-(6-morpholinopyridazin-3-yl)-2-(tetrahydropyran-4-ylmethyl)-3,3a,4,5,6,6a-hexahydro-1H-cyclopenta[c]pyrrol-5-amine]
